Test results published in the NIST ThermoML archive (doi:10.1021/je900137r).
± gives the expanded uncertainty stated by the source.

Assay: molar heat capacity at constant volume
Conditions: Liquid, Vacuum adiabatic calorimetry

SMILES: CCC [propane]
- molar heat capacity at constant volume (101.14 K, 5078 kPa): 59.59 ± 0.85 J/K/mol
- molar heat capacity at constant volume (102.31 K, 9415 kPa): 59.63 ± 0.85 J/K/mol
- molar heat capacity at constant volume (104.09 K, 13618 kPa): 59.63 ± 0.85 J/K/mol
- molar heat capacity at constant volume (105.25 K, 15961 kPa): 59.93 ± 0.86 J/K/mol
- molar heat capacity at constant volume (107.01 K, 19580 kPa): 59.8 ± 0.86 J/K/mol
- molar heat capacity at constant volume (108.15 K, 22430 kPa): 60.17 ± 0.86 J/K/mol
- molar heat capacity at constant volume (109.89 K, 26296 kPa): 60.2 ± 0.86 J/K/mol
- molar heat capacity at constant volume (111.02 K, 28556 kPa): 60.44 ± 0.87 J/K/mol
- molar heat capacity at constant volume (124.99 K, 4945 kPa): 59.16 ± 0.85 J/K/mol
- molar heat capacity at constant volume (126.59 K, 8062 kPa): 59.47 ± 0.85 J/K/mol
- molar heat capacity at constant volume (127.81 K, 10414 kPa): 59.44 ± 0.85 J/K/mol
- molar heat capacity at constant volume (129.39 K, 13480 kPa): 59.66 ± 0.86 J/K/mol
- molar heat capacity at constant volume (130.6 K, 15739 kPa): 59.6 ± 0.85 J/K/mol
- molar heat capacity at constant volume (132.17 K, 18723 kPa): 60.02 ± 0.86 J/K/mol
- molar heat capacity at constant volume (133.36 K, 20943 kPa): 60 ± 0.86 J/K/mol
- molar heat capacity at constant volume (134.92 K, 23869 kPa): 60.12 ± 0.86 J/K/mol
- molar heat capacity at constant volume (136.1 K, 26024 kPa): 60.14 ± 0.86 J/K/mol
- molar heat capacity at constant volume (137.64 K, 28865 kPa): 60.52 ± 0.87 J/K/mol
- molar heat capacity at constant volume (138.81 K, 30978 kPa): 60.43 ± 0.87 J/K/mol
- molar heat capacity at constant volume (149.78 K, 4666 kPa): 59.78 ± 0.86 J/K/mol
- molar heat capacity at constant volume (150.88 K, 6488 kPa): 59.62 ± 0.85 J/K/mol
- molar heat capacity at constant volume (152.48 K, 9113 kPa): 59.99 ± 0.86 J/K/mol
- molar heat capacity at constant volume (153.59 K, 10968 kPa): 60.1 ± 0.86 J/K/mol
- molar heat capacity at constant volume (155.17 K, 13482 kPa): 60.14 ± 0.86 J/K/mol
- molar heat capacity at constant volume (156.27 K, 15303 kPa): 60.05 ± 0.86 J/K/mol
- molar heat capacity at constant volume (157.84 K, 17768 kPa): 60.44 ± 0.87 J/K/mol
- molar heat capacity at constant volume (158.93 K, 19535 kPa): 60.5 ± 0.87 J/K/mol
- molar heat capacity at constant volume (160.49 K, 21973 kPa): 60.63 ± 0.87 J/K/mol
- molar heat capacity at constant volume (161.58 K, 23733 kPa): 60.93 ± 0.87 J/K/mol
- molar heat capacity at constant volume (163.12 K, 26095 kPa): 60.76 ± 0.87 J/K/mol
- molar heat capacity at constant volume (164.21 K, 27828 kPa): 61.2 ± 0.88 J/K/mol
- molar heat capacity at constant volume (165.73 K, 30131 kPa): 61.05 ± 0.87 J/K/mol
- molar heat capacity at constant volume (166.81 K, 31798 kPa): 61.54 ± 0.88 J/K/mol
- molar heat capacity at constant volume (174.72 K, 4244 kPa): 60.48 ± 0.87 J/K/mol
- molar heat capacity at constant volume (175.51 K, 5348 kPa): 60.54 ± 0.87 J/K/mol
- molar heat capacity at constant volume (177.36 K, 7916 kPa): 60.58 ± 0.87 J/K/mol
- molar heat capacity at constant volume (178.15 K, 9061 kPa): 60.86 ± 0.87 J/K/mol
- molar heat capacity at constant volume (179.97 K, 11523 kPa): 61.04 ± 0.87 J/K/mol
- molar heat capacity at constant volume (180.77 K, 12700 kPa): 61.22 ± 0.88 J/K/mol
- molar heat capacity at constant volume (182.57 K, 15077 kPa): 61.29 ± 0.88 J/K/mol
- molar heat capacity at constant volume (183.38 K, 16221 kPa): 61.34 ± 0.88 J/K/mol
- molar heat capacity at constant volume (185.16 K, 18570 kPa): 61.57 ± 0.88 J/K/mol
- molar heat capacity at constant volume (185.97 K, 19691 kPa): 61.79 ± 0.88 J/K/mol
- molar heat capacity at constant volume (187.72 K, 22005 kPa): 62.06 ± 0.89 J/K/mol
- molar heat capacity at constant volume (188.54 K, 23141 kPa): 62.12 ± 0.89 J/K/mol
- molar heat capacity at constant volume (190.27 K, 25385 kPa): 62.49 ± 0.89 J/K/mol
- molar heat capacity at constant volume (191.1 K, 26538 kPa): 62.39 ± 0.89 J/K/mol
- molar heat capacity at constant volume (192.81 K, 28708 kPa): 62.66 ± 0.9 J/K/mol
- molar heat capacity at constant volume (193.64 K, 29843 kPa): 62.88 ± 0.9 J/K/mol
- molar heat capacity at constant volume (195.33 K, 31980 kPa): 62.87 ± 0.9 J/K/mol
- molar heat capacity at constant volume (196.16 K, 33063 kPa): 63.39 ± 0.91 J/K/mol
- molar heat capacity at constant volume (199.29 K, 3434 kPa): 62.08 ± 0.89 J/K/mol
- molar heat capacity at constant volume (200.29 K, 4569 kPa): 62.02 ± 0.89 J/K/mol
- molar heat capacity at constant volume (201.88 K, 6487 kPa): 62.05 ± 0.89 J/K/mol
- molar heat capacity at constant volume (202.88 K, 7627 kPa): 62.29 ± 0.89 J/K/mol
- molar heat capacity at constant volume (204.46 K, 9498 kPa): 62.44 ± 0.89 J/K/mol
- molar heat capacity at constant volume (205.45 K, 10675 kPa): 62.72 ± 0.9 J/K/mol
- molar heat capacity at constant volume (207.03 K, 12468 kPa): 63.03 ± 0.9 J/K/mol
- molar heat capacity at constant volume (208.02 K, 13633 kPa): 63.07 ± 0.9 J/K/mol
- molar heat capacity at constant volume (209.59 K, 15407 kPa): 63.29 ± 0.91 J/K/mol
- molar heat capacity at constant volume (210.57 K, 16525 kPa): 63.38 ± 0.91 J/K/mol
- molar heat capacity at constant volume (212.13 K, 18295 kPa): 63.46 ± 0.91 J/K/mol
- molar heat capacity at constant volume (213.11 K, 19392 kPa): 63.48 ± 0.91 J/K/mol
- molar heat capacity at constant volume (214.66 K, 21152 kPa): 63.9 ± 0.91 J/K/mol
- molar heat capacity at constant volume (215.63 K, 22244 kPa): 63.92 ± 0.91 J/K/mol
- molar heat capacity at constant volume (217.18 K, 23972 kPa): 64.21 ± 0.92 J/K/mol
- molar heat capacity at constant volume (218.15 K, 25069 kPa): 64.71 ± 0.93 J/K/mol
- molar heat capacity at constant volume (219.69 K, 26749 kPa): 64.74 ± 0.93 J/K/mol
- molar heat capacity at constant volume (220.66 K, 27850 kPa): 64.89 ± 0.93 J/K/mol
- molar heat capacity at constant volume (222.18 K, 29491 kPa): 65.36 ± 0.93 J/K/mol
- molar heat capacity at constant volume (223.14 K, 30548 kPa): 65.25 ± 0.93 J/K/mol
- molar heat capacity at constant volume (224.67 K, 32203 kPa): 65.68 ± 0.94 J/K/mol
- molar heat capacity at constant volume (224.72 K, 3002 kPa): 64.29 ± 0.92 J/K/mol
- molar heat capacity at constant volume (225.63 K, 33221 kPa): 66 ± 0.94 J/K/mol
- molar heat capacity at constant volume (225.69 K, 3945 kPa): 64.4 ± 0.92 J/K/mol
- molar heat capacity at constant volume (227.28 K, 5514 kPa): 64.59 ± 0.92 J/K/mol
- molar heat capacity at constant volume (228.26 K, 6458 kPa): 64.54 ± 0.92 J/K/mol
- molar heat capacity at constant volume (229.84 K, 8010 kPa): 64.8 ± 0.93 J/K/mol
- molar heat capacity at constant volume (230.82 K, 8990 kPa): 65.2 ± 0.93 J/K/mol
- molar heat capacity at constant volume (232.38 K, 10480 kPa): 64.79 ± 0.93 J/K/mol
- molar heat capacity at constant volume (233.38 K, 11478 kPa): 65.49 ± 0.94 J/K/mol
- molar heat capacity at constant volume (234.92 K, 12923 kPa): 65.31 ± 0.93 J/K/mol
- molar heat capacity at constant volume (235.92 K, 13904 kPa): 65.71 ± 0.94 J/K/mol
- molar heat capacity at constant volume (237.46 K, 15350 kPa): 65.71 ± 0.94 J/K/mol
- molar heat capacity at constant volume (238.46 K, 16299 kPa): 66.07 ± 0.94 J/K/mol
- molar heat capacity at constant volume (239.99 K, 17746 kPa): 65.96 ± 0.94 J/K/mol
- molar heat capacity at constant volume (240.99 K, 18681 kPa): 66.68 ± 0.95 J/K/mol
- molar heat capacity at constant volume (242.51 K, 20123 kPa): 66.43 ± 0.95 J/K/mol
- molar heat capacity at constant volume (243.5 K, 21054 kPa): 66.99 ± 0.96 J/K/mol
- molar heat capacity at constant volume (245.03 K, 22471 kPa): 67.42 ± 0.96 J/K/mol
- molar heat capacity at constant volume (246.01 K, 23413 kPa): 67.65 ± 0.97 J/K/mol
- molar heat capacity at constant volume (247.54 K, 24804 kPa): 67.75 ± 0.97 J/K/mol
- molar heat capacity at constant volume (248.53 K, 25750 kPa): 67.69 ± 0.97 J/K/mol
- molar heat capacity at constant volume (249.66 K, 2670 kPa): 66.76 ± 0.95 J/K/mol
- molar heat capacity at constant volume (250.04 K, 27105 kPa): 67.7 ± 0.97 J/K/mol
- molar heat capacity at constant volume (250.68 K, 3498 kPa): 66.65 ± 0.95 J/K/mol
- molar heat capacity at constant volume (251.02 K, 28035 kPa): 68.22 ± 0.97 J/K/mol
- molar heat capacity at constant volume (252.25 K, 4769 kPa): 67.25 ± 0.96 J/K/mol
- molar heat capacity at constant volume (252.53 K, 29385 kPa): 68.06 ± 0.97 J/K/mol
- molar heat capacity at constant volume (253.26 K, 5557 kPa): 67.47 ± 0.96 J/K/mol
- molar heat capacity at constant volume (253.52 K, 30287 kPa): 68.63 ± 0.98 J/K/mol
- molar heat capacity at constant volume (254.85 K, 6861 kPa): 67.69 ± 0.97 J/K/mol
- molar heat capacity at constant volume (255.02 K, 31645 kPa): 68.71 ± 0.98 J/K/mol
- molar heat capacity at constant volume (255.85 K, 7667 kPa): 67.82 ± 0.97 J/K/mol
- molar heat capacity at constant volume (256 K, 32529 kPa): 69.58 ± 0.99 J/K/mol
- molar heat capacity at constant volume (257.44 K, 8938 kPa): 67.87 ± 0.97 J/K/mol
- molar heat capacity at constant volume (258.44 K, 9764 kPa): 67.88 ± 0.97 J/K/mol
- molar heat capacity at constant volume (260.02 K, 10999 kPa): 68.4 ± 0.98 J/K/mol
- molar heat capacity at constant volume (261.02 K, 11824 kPa): 68.53 ± 0.98 J/K/mol
- molar heat capacity at constant volume (262.61 K, 13051 kPa): 68.83 ± 0.98 J/K/mol
- molar heat capacity at constant volume (263.6 K, 13861 kPa): 69.03 ± 0.98 J/K/mol
- molar heat capacity at constant volume (265.2 K, 15091 kPa): 69.38 ± 0.99 J/K/mol
- molar heat capacity at constant volume (266.18 K, 15878 kPa): 69.32 ± 0.99 J/K/mol
- molar heat capacity at constant volume (267.79 K, 17120 kPa): 69.94 ± 1 J/K/mol
- molar heat capacity at constant volume (268.76 K, 17881 kPa): 69.68 ± 0.99 J/K/mol
